From ChEMBL document CHEMBL4422679, “Unexpected equivalent potency of a constrained chromene enantiomeric pair rationalized by co-crystal structures in complex with estrogen receptor alpha” (Bioorg Med Chem Lett, 2019)

Key:
[1] = Clearance in Sprague-Dawley rat at 1 mg/kg, iv or 1 mg/kg, po; format: ADME, organism-based; details: in vivo
Rattus norvegicus [2] = assay: In vivo antagonist activity at estrogen receptor in Sprague-Dawley rat assessed as reduction in ethynylestradiol-stimulated increase in uterine wet weight at 10 mg/kg, po administered once daily via gavage for 3 days measured 24 hrs post last dose relative to control; format: functional; design: scale not given: the % may be the effect or the level left
[3] = Octanol-buffer distribution coefficient, log D of the compound at pH 7.4; format: physicochemical
MCF7 = assay: Antiproliferative activity against human MCF7 cells after 3 days by CellTiter-Glo luminescent cell viability assay; format: functional, cell-based
Rattus norvegicus [4] = assay: In vivo antagonist activity at estrogen receptor in Sprague-Dawley rat assessed as reduction in ethynylestradiol-stimulated increase in uterine wet weight at 0.1 mg/kg, po administered once daily via gavage for 3 days measured 24 hrs post last dose relative to control; format: functional; design: scale not given: the % may be the effect or the level left
Rattus norvegicus [5] = assay: In vivo antagonist activity at estrogen receptor in Sprague-Dawley rat assessed as reduction in ethynylestradiol-stimulated increase in uterine wet weight administered once daily via oral gavage for 3 days measured 24 hrs post last dose; format: functional, organism-based
[6] = Oral bioavailability in Sprague-Dawley rat at 1 mg/kg; format: ADME, organism-based; details: in vivo
Estrogen receptor = molecular target: T1, Estrogen receptor (Homo sapiens, UniProt P03372)
T1 sequence (P03372 whole entry): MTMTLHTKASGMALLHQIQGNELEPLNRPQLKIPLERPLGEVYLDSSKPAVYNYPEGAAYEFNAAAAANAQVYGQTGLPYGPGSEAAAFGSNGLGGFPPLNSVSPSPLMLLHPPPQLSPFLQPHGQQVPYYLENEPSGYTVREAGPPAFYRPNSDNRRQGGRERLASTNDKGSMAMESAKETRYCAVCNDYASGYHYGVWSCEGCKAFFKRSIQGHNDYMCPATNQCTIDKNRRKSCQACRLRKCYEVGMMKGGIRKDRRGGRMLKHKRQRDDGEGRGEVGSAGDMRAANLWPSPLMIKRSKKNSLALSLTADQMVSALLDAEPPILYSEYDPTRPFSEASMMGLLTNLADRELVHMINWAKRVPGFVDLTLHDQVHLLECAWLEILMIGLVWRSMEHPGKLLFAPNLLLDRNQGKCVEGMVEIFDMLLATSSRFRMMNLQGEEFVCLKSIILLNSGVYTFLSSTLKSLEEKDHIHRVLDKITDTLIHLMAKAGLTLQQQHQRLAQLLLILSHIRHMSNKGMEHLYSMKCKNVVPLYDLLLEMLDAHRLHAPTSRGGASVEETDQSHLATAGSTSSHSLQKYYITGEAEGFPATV
Description: Induction of ERalpha degradation in human MCF7 cells after 4 hrs by Alexafluor-488 conjugate anti-mouse IgG antibody/Hoechst 33342 staining based immunofluorescence imaging analysis

Rattus norvegicus [7] = assay: In vivo antagonist activity at estrogen receptor in Sprague-Dawley rat assessed as reduction in ethynylestradiol-stimulated increase in uterine wet weight at 60 mg/kg, po administered once daily via gavage for 3 days measured 24 hrs post last dose relative to control; format: functional; design: scale not given: the % may be the effect or the level left

| SMILES | IC50 (MCF7; Homo sapiens, MCF7, 72 h) | IC50 (Estrogen receptor) | IC50 (MCF7; mcf7) | other results |
| --- | --- | --- | --- | --- |
| Oc1ccc2c(c1)O[C@@H](c1ccc(OCCN3CC(CF)C3)cc1)C1=C2CCOc2cc(O)ccc21 | 0.4 nM |  |  | clearance [1]: 57 mL/min/kg; Activity (Rattus norvegicus [2]): 87%; logD [3]: 3; Activity (Rattus norvegicus [4]): 17%; Activity (Rattus norvegicus [5]): Dose-dependent effect; bioavailability [6]: 3.2% |
| CC1=C(c2cccc(O)c2)[C@H](c2ccc(OCCN3CC(CF)C3)cc2)Oc2ccc(O)cc21 | 0.2 nM |  |  | clearance [1]: 85 mL/min/kg; Activity (Rattus norvegicus [2]): 105.7%; logD [3]: 2.9; bioavailability [6]: 16% |
| C[C@@H](COc1ccc(C2Oc3cc(O)ccc3C3=C2c2ccc(O)cc2OCC3)cc1)N1CC[C@@H](CF)C1 (some centres not stated) | 0.2 nM |  |  |  |
| Oc1ccc2c(c1)O[C@H](c1ccc(OCCN3CC(CF)C3)cc1)C1=C2CCOc2cc(O)ccc21 | 0.9 nM |  |  | logD [3]: 3.2 |
| Oc1ccc2c(c1)OC(c1ccc(OCCN3CC[C@@H](CF)C3)cc1)C1=C2CCOc2cc(O)ccc21 (some centres not stated) | 0.3 nM |  |  |  |
| Oc1ccc2c(c1)OC(c1ccc(OCCN3CCCCC3)cc1)C1=C2CCOc2cc(O)ccc21 (racemic) | 1.2 nM | 0.28 nM |  |  |
| Oc1ccc2c(c1)OC(c1ccc(OCCN3CC(CF)C3)cc1)C1=C2CCOc2cc(O)ccc21 (racemic) | 0.7 nM |  |  |  |
| Oc1ccc2c(c1)OCCC1=C2C(c2ccc(OCCN3CC(CF)C3)cc2)Oc2ccc(O)cc21 (stereo in doubt; 17a) |  |  | 0.3 nM |  |
| Oc1ccc2c(c1)OCCC1=C2C(c2ccc(OCCN3CC(CF)C3)cc2)Oc2ccc(O)cc21 (stereo in doubt; 17b) | 0.6 nM |  |  | clearance [1]: 237 mL/min/kg; logD [3]: 2.7 |
| Oc1ccc2c(c1)OC(c1ccc(OCCN3CC(CF)C3)cc1)C1=C2CCOc2ccc(O)cc21 (stereo in doubt; 18a) |  | 0.61 nM | 5 nM |  |
| Oc1ccc2c(c1)OC(c1ccc(OCCN3CC(CF)C3)cc1)C1=C2CCOc2ccc(O)cc21 (stereo in doubt; 18b) |  | 9.6 nM | 20 nM |  |
| Oc1ccc2c(c1)C1=C(c3cc(O)ccc3OCC1)C(c1ccc(OCCN3CC(CF)C3)cc1)O2 (stereo in doubt; 19a) |  | 0.24 nM | 0.8 nM |  |
| Oc1ccc2c(c1)C1=C(c3cc(O)ccc3OCC1)C(c1ccc(OCCN3CC(CF)C3)cc1)O2 (stereo in doubt; 19b) |  | 3.2 nM | 10 nM |  |
| CC/C(=C(\c1ccccc1)c1ccc(OCCN(C)C)cc1)c1ccccc1 [TAMOXIFEN] |  |  |  | Activity (Rattus norvegicus [7]): 36% |
